Test results as given in patent publication US8772283B2, “Imidazo-oxazine compound or salt thereof” (Taiho Pharmaceutical Co., Ltd., priority 2011, dated 2014).
Where a name gives a salt, the structure may show the parent alone.

Key:
human AKT2 = human AKT2 (Homo sapiens (Human), UniProt P31751); assay: AKT2 kinase activity inhibition (TR-FRET, biotinylated Crosstide substrate); type: biochemical; conditions: preincubation 120 min at 25° C.; ATP 150 μM; Crosstide 500 nM
Method: (§1) Preparation of AKT1 and AKT2 and measurement of in vitro inhibitory activity of the above-mentioned compounds against AKT1 and AKT2 kinase activity were carried out with reference to the method disclosed in Biochem. J. Vol. 385, pp 399-408 (2005). In the preparation of AKT1 and AKT2, human AKT1 and AKT2 to which a middle T antigen tag was added were expressed in Sf 9 insect cells, and then AKT1 and AKT2 were prepared following affinity purification and activation by PDK1. The prepared AKT1 and AKT2 were stored at −80° C. until the time of measurement of inhibitory activity of the compounds. In the measurement of inhibitory activity of the compounds, AKT1 or AKT2 and each compound of the present invention were preincubated at 25° C. for 120 minutes in a buffer solution for reaction (15 mM Tris-HCl pH 7.5, 0.01% Tween-20, 2 mM DTT). As a substrate, biotinylated Crosstide (bioton-KGSGSGRPRTSSFAEG), MgCl2, and ATP were added to final concentrations of 500 nM, 10 mM, and 150 μM, respectively, and reactions were carried out at 25° C. for 60 minutes. The reactions were stopped by adding EDTA to a final concentration of 80 mM. Then, a detection liquid in which an Eu-labeled anti-phosphorylation Crosstide antibody (PerkinElmer) and SureLight APC-SA (PerkinElmer) were contained at a final concentration of 0.5 nM and […], respectively, was added, and reactions were carried out at room temperature for 2 hours. Finally, the amount of fluorescence at the time of irradiation of excitation light having a wavelength of 337 nm was measured at dual wavelengths of 620 nm and 665 nm by PHERAstar FS (BMG LABTECH). The amount of phosphorylation was determined from the ratio of the fluorescence amounts at the dual wavelengths. The compound concentration at which phosphorylation can be inhibited by 50% was defined as […] (nM), and the results are shown in Table 4 below.

[1] = test system: S6 ribosomal protein (S6RP) Ser240/Ser244 phosphorylation; assay: Phosphorylated S6RP (Ser240/Ser244) inhibitory activity in cultured cell A2780 (Meso Scale Discovery assay); type: cell-based; conditions: A2780 cells, 3 hours treatment; average±standard deviation of three independent runs
Method: (§2) To evaluate the inhibitory activity of the above compounds against AKT activity, AKT Ser 473 phosphorylation and phosphorylation of S6 ribosomal protein (S6RP) (a downstream factor of Akt signal) at Ser240/Ser244, which serve as indices for the activation status of AKT, were measured in extracts of cultured cells which had been treated with the above compounds. For the measurement, assays (manufactured by Meso Scale Discovery) utilizing electrochemiluminescence based on the ELISA principle were used for both AKT Ser473 and S6RP Ser240/Ser244.
(§3) In 10% FBS-containing RPMI1640 medium (Invitrogen), ovarian cancer-derived A2780 cells in the logarithmic growth phase were seeded at 4.5×10^4 cells/150 μL/well into polylysine coated 96-well flat-bottom plates, and cultured for one day in an incubator at 5% CO2, 37° C., and 100% humidity.
(§4) Each compound of the present invention was supplied as a stock solution prepared at a concentration of 10 mM in DMSO. Using this solution, a dilution series was prepared in DMSO solvent at 200-fold of the final concentrations (10, 3, 1, 0.3, 0.1, 0.03, 0.01, 0.003 μM). The day after the cells were seeded, the compound dilution series at a 200-fold concentration was diluted 50-fold in medium for cell culture. To each well of the aforementioned A2780 cell culture plates, 50 μL of the diluted compound dilution series was added. The plates were then placed back in the incubator, and the culture was continued for 3 hours at 5% CO2, 37° C., and 100% humidity.
(§5) Meso Scale Discovery's 96-Well Multi-Spot Phospho-AKT (Ser473) Assay (K151CAA-3) and Phospho (Ser240/244)/Total S6RP Assay (K11139D-2) were used. In advance, a necessary amount of the supplied cell extract buffer was dispensed, and protease inhibitor cocktail and protein phosphatase inhibitor cocktail were added thereto, and kept cold on ice. The culture plates of the cells cultured with the compounds for 3 hours were taken out and the medium was removed. 100 μL of the cell extract buffer kept cold was added per well, followed by extraction by shaking at 300 r.p.m. for 1 hour using a plate shaker while maintaining a temperature of 4° C. Using the obtained extracts at 40 μL/well for the Phospho-AKT (Ser473) Assay and at 15 μL/well for the Phospho(Ser240/244)/Total S6RP Assay, reactions were conducted at 4° C. overnight with shaking at 300 r.p.m. according to the document attached to the kits. The next day, after the wells were washed three times with the supplied wash buffer, 50 μL/well of SULFO-TAG™ sandwich antibody solution was added, and reactions were carried out at room temperature for 1 hour. The wells were washed with the wash buffer three times, and 150 μL of the supplied Read Buffer T was added to each well. The amounts of phosphorylation of AKT and S6RP were measured by a SECTOR Imager 6000 plate reader (manufactured by Meso Scale Discovery) within 30 minutes of the Read Buffer T addition.
(§6) The extraction buffer-only background was subtracted from all of the measurement values, and AKT and S6RP phosphorylation signals in the control cell extract treated with only DMSO were defined as 100%. The compound concentrations and the levels of phosphorylated AKT and S6PR (expressed as a percentage relative to the control) in each concentration were plotted, and IC50 concentration (nM) that achieves 50% inhibition of the control was determined.

[2] = test system: AKT Ser473 phosphorylation; assay: Phosphorylated AKT (Ser473) inhibitory activity in cultured cell A2780 (Meso Scale Discovery assay); type: cell-based; conditions: A2780 cells, 3 hours treatment; average±standard deviation of three independent runs
Method: as §2, §3, §4, §5, §6

human AKT1 = human AKT1 (Homo sapiens (Human), UniProt P31749); assay: AKT1 kinase activity inhibition (TR-FRET, biotinylated Crosstide substrate); type: biochemical; conditions: preincubation 120 min at 25° C.; ATP 150 μM; Crosstide 500 nM
Chain of human AKT1 (P31749 whole entry): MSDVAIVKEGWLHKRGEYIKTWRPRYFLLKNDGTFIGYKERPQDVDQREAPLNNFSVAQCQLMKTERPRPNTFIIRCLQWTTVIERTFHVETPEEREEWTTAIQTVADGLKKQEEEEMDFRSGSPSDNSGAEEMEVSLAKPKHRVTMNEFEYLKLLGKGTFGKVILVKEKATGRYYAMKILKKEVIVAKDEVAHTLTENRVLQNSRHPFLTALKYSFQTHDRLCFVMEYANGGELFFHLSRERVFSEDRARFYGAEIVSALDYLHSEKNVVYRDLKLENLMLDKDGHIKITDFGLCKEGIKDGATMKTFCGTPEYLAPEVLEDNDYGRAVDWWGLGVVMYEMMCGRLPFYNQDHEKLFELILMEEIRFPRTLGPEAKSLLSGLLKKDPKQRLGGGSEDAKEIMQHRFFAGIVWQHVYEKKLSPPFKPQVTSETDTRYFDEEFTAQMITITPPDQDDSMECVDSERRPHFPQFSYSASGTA
Method: as §1

Chain of human AKT2 (P31751 whole entry): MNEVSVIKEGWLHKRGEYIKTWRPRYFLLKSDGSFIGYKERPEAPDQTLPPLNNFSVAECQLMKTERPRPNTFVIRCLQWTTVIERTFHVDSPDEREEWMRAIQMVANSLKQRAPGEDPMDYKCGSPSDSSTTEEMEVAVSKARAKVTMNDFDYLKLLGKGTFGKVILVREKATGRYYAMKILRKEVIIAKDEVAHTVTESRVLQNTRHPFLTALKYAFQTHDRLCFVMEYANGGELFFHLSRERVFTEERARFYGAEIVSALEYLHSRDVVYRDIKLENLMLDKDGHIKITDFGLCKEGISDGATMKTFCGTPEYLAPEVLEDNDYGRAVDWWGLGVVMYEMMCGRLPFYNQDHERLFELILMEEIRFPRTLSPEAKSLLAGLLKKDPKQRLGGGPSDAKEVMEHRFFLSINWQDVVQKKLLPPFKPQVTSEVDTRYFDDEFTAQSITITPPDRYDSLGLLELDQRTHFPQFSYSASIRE

`N[C@]1(c2ccc(-c3nc4n(c3-c3ccccc3)COc3cccc(F)c3-4)cc2)C[C@](O)(C2CC2)C1` [Example 1, trans-3-amino-1-cyclopropyl-3-(4-(10-fluoro-3-phenyl-5H-benzo[e]imidazo[1,2-c][1,3]oxazin-2-yl)phenyl)cyclobutanol] showed an IC50 (human AKT2) of 0.29 nM, an IC50 [1] of 40 ± 13 nM and an IC50 [2] of 24 ± 1 nM. For the same molecule, the IC50 (human AKT1) was 3.7 nM.
With `CC1(O)CC(N)(c2ccc(-c3nc4n(c3-c3ccccc3)COc3cc(CO)ccc3-4)cc2)C1` (stereo not drawn) [Example 45, trans-3-amino-3-(4-(8-(hydroxymethyl)-3-phenyl-5H-benzo[e]imidazo[1,2-c][1,3]oxazin-2-yl)phenyl)-1-methylcyclobutanol] the IC50 (human AKT2) was 2.7 nM and the IC50 (human AKT1) was 8.6 nM.
Molecule `CC1(O)CC(N)(c2ccc(-c3nc4n(c3-c3ccccc3)COc3cc(C#N)ccc3-4)cc2)C1` (stereo not drawn) [Example 47, 2-(4-(trans-1-amino-3-hydroxy-3-methylcyclobutyl)phenyl)-3-phenyl-5H-benzo[e]imidazo[1,2-c][1,3]oxazine-8-carbonitrile] has an IC50 (human AKT2) of 1.2 nM and an IC50 (human AKT1) of 6.2 nM.
`CC1(O)CC(N)(c2ccc(-c3nc4n(c3-c3ccccc3)COc3ccc(-c5cn[nH]c5)cc3-4)cc2)C1` (stereo not drawn) [Example 49, trans-3-amino-1-methyl-3-(4-(3-phenyl-9-(1H-pyrazol-4-yl)-5H-benzo[e]imidazo[1,2-c][1,3]oxazin-2-yl)phenyl)cyclobutanol] showed an IC50 (human AKT2) of 0.42 nM and an IC50 (human AKT1) of 1.3 nM.
`Cc1ccc2c(n1)-c1nc(-c3ccc(C4(N)CC(C)(O)C4)cc3)c(-c3ccccc3)n1CO2` (stereo not drawn) [Example 50, trans-3-amino-1-methyl-3-(4-(9-methyl-3-phenyl-5H-imidazo[1,2-c]pyrido[2,3-e][1,3]oxazin-2-yl)phenyl)cyclobutanol] was tested, and the IC50 (human AKT2) was 0.85 nM and the IC50 (human AKT1) was 11 nM.
In the case of `COc1ccc2c(n1)-c1nc(-c3ccc(C4(N)CC(C)(O)C4)cc3)c(-c3ccccc3)n1CO2` (stereo not drawn) [Example 51, trans-3-amino-3-(4-(9-methoxy-3-phenyl-5H-imidazo[1,2-c]pyrido[2,3-e][1,3]oxazin-2-yl)phenyl)-1-methylcyclobutanol], the IC50 (human AKT2) is reported as 1.1 nM and the IC50 (human AKT1) is reported as 5.5 nM.
Work on `CNC(=O)c1ccc2c(c1)-c1nc(-c3ccc([C@]4(N)C[C@](C)(O)C4)cc3)c(-c3ccccc3)n1CO2` [Example 52, 2-(4-(trans-1-amino-3-hydroxy-3-methylcyclobutyl)phenyl)-N-methyl-3-phenyl-5H-benzo[e]imidazo[1,2-c][1,3]oxazine-9-carboxamide] yielded an IC50 (human AKT2) of 0.28 nM and an IC50 (human AKT1) of 1.5 nM.
For `CC1(O)CC(N)(c2ccc(-c3nc4n(c3-c3ccccc3)COc3ccc(C(N)=O)cc3-4)cc2)C1` (stereo not drawn) [Example 53, 2-(4-(trans-1-amino-3-hydroxy-3-methylcyclobutyl)phenyl)-3-phenyl-5H-benzo[e]imidazo[1,2-c][1,3]oxazine-9-carboxamide], the IC50 (human AKT2) was 0.26 nM and the IC50 (human AKT1) was 1.6 nM.
Work on `CN(C)C(=O)c1ccc2c(c1)-c1nc(-c3ccc(C4(N)CC(C)(O)C4)cc3)c(-c3ccccc3)n1CO2` (stereo not drawn) [Example 54, 2-(4-(trans-1-amino-3-hydroxy-3-methylcyclobutyl)phenyl)-N,N-dimethyl-3-phenyl-5H-benzo[e]imidazo[1,2-c][1,3]oxazine-9-carboxamide] yielded an IC50 (human AKT2) of 1.3 nM and an IC50 (human AKT1) of 4.4 nM.
In the case of `CCNC(=O)c1ccc2c(c1)-c1nc(-c3ccc(C4(N)CC(C)(O)C4)cc3)c(-c3ccccc3)n1CO2` (stereo not drawn) [Example 55, 2-(4-(trans-1-amino-3-hydroxy-3-methylcyclobutyl)phenyl)-N-ethyl-3-phenyl-5H-benzo[e]imidazo[1,2-c][1,3]oxazine-9-carboxamide], the IC50 (human AKT2) is reported as 0.31 nM and the IC50 (human AKT1) is reported as 1.8 nM.
In the case of `CN(C)C(=O)c1ccc2c(c1)OCn1c-2nc(-c2ccc(C3(N)CC(C)(O)C3)cc2)c1-c1ccccc1` (stereo not drawn) [Example 57, 2-(4-(trans-1-amino-3-hydroxy-3-methylcyclobutyl)phenyl)-N,N-dimethyl-3-phenyl-5H-benzo[e]imidazo[1,2-c][1,3]oxazine-8-carboxamide], the IC50 (human AKT2) is reported as 3.5 nM and the IC50 (human AKT1) is reported as 15 nM.
`CC1(O)CC(N)(c2ccc(-c3nc4n(c3-c3ccccc3)COc3cc(C(=O)NCCO)ccc3-4)cc2)C1` (stereo not drawn) [Example 58, 2-(4-(trans-1-amino-3-hydroxy-3-methylcyclobutyl)phenyl)-N-(2-hydroxyethyl)-3-phenyl-5H-benzo[e]imidazo[1,2-c][1,3]oxazine-8-carboxamide] was tested, and the IC50 (human AKT2) was 0.7 nM and the IC50 (human AKT1) was 3.1 nM.
With `CC1(O)CC(N)(c2ccc(-c3nc4n(c3-c3ccccc3)COc3ccc(C(=O)NCCO)cc3-4)cc2)C1` (stereo not drawn) [Example 60, 2-(4-(trans-1-amino-3-hydroxy-3-methylcyclobutyl)phenyl)-N-(2-hydroxyethyl)-3-phenyl-5H-benzo[e]imidazo[1,2-c][1,3]oxazine-9-carboxamide] the IC50 (human AKT2) was 0.57 nM and the IC50 (human AKT1) was 2.4 nM.
Work on `CCONC(=O)c1ccc2c(c1)-c1nc(-c3ccc([C@]4(N)C[C@](C)(O)C4)cc3)c(-c3ccccc3)n1CO2` [Example 61, 2-(4-(trans-1-amino-3-hydroxy-3-methylcyclobutyl)phenyl)-N-ethoxy-3-phenyl-5H-benzo[e]imidazo[1,2-c][1,3]oxazine-9-carboxamide] yielded an IC50 (human AKT2) of 0.4 nM and an IC50 (human AKT1) of 1.8 nM.
`CC1(O)CC(N)(c2ccc(-c3nc4n(c3-c3ccccc3)COc3cc(C(N)=O)ccc3-4)cc2)C1` (stereo not drawn) [Example 62, 2-(4-(trans-1-amino-3-hydroxy-3-methylcyclobutyl)phenyl)-3-phenyl-5H-benzo[e]imidazo[1,2-c][1,3]oxazine-8-carboxamide] was tested, and the IC50 (human AKT2) was 0.4 nM and the IC50 (human AKT1) was 1.3 nM.
`CC1(O)CC(N)(c2ccc(-c3nc4n(c3-c3ccccc3)COc3ccc(C(=O)O)cc3-4)cc2)C1` (stereo not drawn) [Example 63, 2-(4-(trans-1-amino-3-hydroxy-3-methylcyclobutyl)phenyl)-3-phenyl-5H-benzo[e]imidazo[1,2-c][1,3]oxazine-9-carboxylic acid hydrochloride] gave an IC50 (human AKT2) of 0.91 nM and an IC50 (human AKT1) of 5 nM.
`CC1(O)CC(N)(c2ccc(-c3nc4n(c3-c3ccccc3)COc3cc(C(=O)O)ccc3-4)cc2)C1` (stereo not drawn) [Example 64, 2-(4-(trans-1-amino-3-hydroxy-3-methylcyclobutyl)phenyl)-3-phenyl-5H-benzo[e]imidazo[1,2-c][1,3]oxazine-8-carboxylic acid hydrochloride] gave an IC50 (human AKT2) of 0.94 nM and an IC50 (human AKT1) of 3.1 nM.
“trans-3-amino-1-methyl-3-(4-(3-phenyl-5H-imidazo[1,2-c]pyrazino[2,3-e][1,3]oxazin-2-yl)phenyl)cyclobutanol [Example 42]” gave an IC50 (human AKT2) of 4 nM and an IC50 (human AKT1) of 6.4 nM.
